These results are taken from patent publication US10705094B2, “TNF receptor signaling modulator assay” (UCB Biopharma SRL, priority 2015, dated 2020).

The IC50 is the point on the concentration scale where inhibition reaches its midpoint. In general, Kd refers to the concentration at which binding is half-saturated. In general, kon refers to a measure of how fast the partners come together. One may read the koff as the rate constant with which the complex falls apart. In general, EC50 refers to the concentration giving half of the maximal effect.

Each structure is given as a SMILES string.

In one assay the target is h-TNFα (Homo sapiens, UniProt P01375). Briefly: Monomer exchange in TNFα trimers by mass spectrometry, compound pre-incubated with human TNFα. The format is binding. The settings on record: 18 hours; for off-rate from h-TNFα: 1:1 complex with h-TNFα mixed with m-TNFα; for cross species monomer subunit exchange: compound preincubated with h-TNFα, then m-TNFα added. The method, then: Human and mouse homotrimers of TNFα (H3 and M3 respectively) were incubated together and aliquots of the solution monitored by mass spectrometry appearance of the cross species heterotrimers. The mass spectrometric analysis confirmed that monomer exchange between native TNFα trimers was able to occur in solution. The exchange rate was slow and was monitored over a course of 4 hours before full equilibration was achieved (data not shown). The mechanism is unknown, although is it unlikely to involve formation of the dimeric forms as none of these were observed. Monomer exchange is likely to be occurring between pure human and mouse trimers, the mixing of mouse and human trimers simply makes this exchange visible by mass spectrometry.
In a second series of experiments an excess of the compound of formula (1) was incubated with Human TNFα, the excess compound of formula (1) was then removed. Mass Spectral analysis confirmed that a 1:1 complex had been formed between the compound of formula (1) and h-TNFα. Mouse TNFα was now added to this sample which was then subjected to mass spectral analysis over a number of hours. After 18 hours there was no observed change in the composition of the sample. […] In addition, there was no evidence of formation of the M3L species and no evidence of formation of the unligated H3 species.
These two experiments were then repeated with the compound of formula (2) instead of the compound of formula (1). The results when the compound of formula (2) was pre-incubated with h-TNFα to give a 1:1 complex and then mixed with unligated m-TNFα were the same as with the compound of formula (1).

Assay [1] addresses T1, TNFα (Homo sapiens, UniProt P01375). Briefly: L929 murine fibrosarcoma cell-killing (neutralisation) assay. Set-up: host or cells: added to L929 murine fibrosarcoma cells (ECACC, 85011425). The settings on record: L929 cells; read-out: IC50 (inhibition of cell killing activity of human TNFα). The format is cell-based, mouse. Here is the method:
The L929 neutralisation assays were carried out using the protocol disclosed in Baarsch M J J et al (Immunol Methods 1991; 140: 15-22) and Galloway C J et al J (Immunol Methods 1991; 140: 37-43).
Briefly, L929 cells (ECACC, 85011425) were cultured in culture medium consisting of RPMI 1640 (Gibco) containing 10% FCS (PAA), 2 mM glutamine (Gibco), 50 U/ml penicillin (Gibco) and 50 μg/ml streptomycin (Gibco). When they were subcultured, the cells were washed three times with 10 mL Dulbecco's phosphate-buffered saline without calcium and magnesium (Gibco) and 3 ml of trypsin-EDTA (Gibco) was then added for 2 minutes to remove the cells from the flask. Culture medium was added to neutralise the trypsin and the cells pipetted up and down to remove any clumps.
The L929 cells were split 1/2 or 1/3 the day before use and cultured for a further 24 hours. The flasks were then trypsinised as above and 2×10^4 cells in 100 μl were added per well of a 96 well flat-bottomed plate (Becton Dickinson). The plates were cultured for 24 hours before the assay was set up.
Serial dilutions were made from DMSO stocks of the compounds.
The assay medium was the same as culture medium but also contained 1 μg/ml actinomycin D (Sigma). The medium was flicked off the plates and the assay samples plus TNFα, standards and controls were added in 100 μl volumes in duplicate. Plates were incubated for a further 16 hours and then 10 μl per well of a 5 mg/ml methylthiazoletetrazolium (MTT; Sigma) solution in culture medium was added for a further 4 hours. The reaction was stopped by the addition of 100 μl of solubilisation buffer containing 20% sodium dodecyl sulphate (SDS, BDH) dissolved in 50% dimethyl formamide (DMF; BDH) and 50% deionised water.
After overnight incubation at 37° C. to allow the dye to dissolve, the plates were read on a Multiskan EX plate reader (Labsystem) at 570 nm with subtraction at 630 nm. Data were analysed using the Genesis software package.

Assay [2] concerns the target T1, TNFα. Briefly: Surface plasmon resonance kinetics of compound binding to immobilised TNFα (Biacore T100/T200). Conditions: for dissociation half-life (t1/2): from koff; for kon / koff: immobilised TNFα, HBS-P with 5% DMSO; for koff: read-out: dissociation rate constant (koff). The method, then:
Surface plasmon resonance was used to measure the association rate, the dissociation rate and the affinity of the compounds of formulae (1) and (2) for TNFα (FIGS. 13A and B). For the purpose of this study a Biacore T100/T200 was used.
TNFα was immobilised at pH5 to a level of 5-8 KRU onto a CMS sensor in HBS-P buffer (10 mM HEPES pH 7.4, 0.15 M NaCl, 0.005% Surfactant P20, BIAcore, GE Healthcare). The TNFα was then equilibrated in HBS-P with 5% DMSO for at least 5 hours. The samples were diluted from 10 mM stocks into DMSO matched buffer and left to solubilise for at least 5 hours. The flow rate was 30 μL/min.
This assay was performed by adding 4 or 5 concentrations of compound starting from a highest concentration of 25 μM for compound of formula (1) and 1 μM for compound of formula (2) and then serially diluting this sample. Background subtraction binding curves were analysed using the BIAevaluation software following standard procedures. Binding, affinity and kinetic parameters were determined using Biacore software. The kinetic data were fitted using the levenberg marquardt algorithm.
(Surface plasmon resonance follows binding to a sensor surface in real time, without labels.)

Assay [3] addresses TNFα binding to TNF receptor (ECD-TNFR) (Homo sapiens, UniProt P01375). Briefly: Biacore in-solution competition/enhancement assay, TNFα/compound mix over immobilised ECD-TNFR. The settings on record: Biacore A100/4000, 0.5-1 nM TNFα, highest concentration 20 μM; read-out: EC50 (compound induced enhanced binding of TNFα to TNF receptor). Here is the method: For this purpose a Biacore A100/4000 was used. […] For example a typical assay may use 20 μ[…] solution of compound. […] Control compounds were tested every 10-15 cycles. […] Background subtraction binding curves were analysed using the BIAevaluation software following standard procedures. The EC50 data was determined using a four parameter logistic fit. […] The RU (resonance unit) value for TNFα in the absence of compound was subtracted from the curves so these now show only the increase in binding induced by the compounds. The progress curves plateau at higher RU values as the concentration of compound increases.

In the case of `Cc1ccc(C)c(Cn2c(C(O)c3ccncc3)nc3ccccc32)c1` (stereo not drawn) [Compound (1), [1-(2,5-Dimethylbenzyl)-1H-benzimidazol-2-yl](pyridin-4-yl)methanol], on h-TNFα, the “off-rate from h-TNFα” value is “no measurable off-rate” and the “cross species monomer subunit exchange” value was “no cross species monomer subunit exchange was observed”. Moreover, the IC50 at TNFα [1] worked out at 0.306 µM. Further, the Kd at TNFα [2] (calculated from koff/kon, read-out: dissociation constant (KD)) is 0.035 µM. Moreover, at TNFα [2], the “dissociation half-life (t1/2)” value is “over 2 hours”, the association rate constant (kon) was 2670 M⁻¹ s⁻¹ and the koff was 9.46e-05 s⁻¹. The EC50 in assay [3] was 0.298 µM.

Turning to `Cc1ccc(C)c(Cn2c(C(O)c3ccncc3)nc3ccc(-c4cnn(C)c4)cc32)c1` (stereo not drawn) [Compound (2), [1-(2,5-Dimethylbenzyl)-6-(1-methyl-1H-pyrazol-4-yl)-1H-benzimidazol-2-yl](pyridin-4-yl)methanol], at h-TNFα, the “off-rate from h-TNFα” value was “no measurable off-rate” and the “cross species monomer subunit exchange” value is “No monomer subunit exchange was observed”. The IC50 at TNFα [1] is 0.125 µM. Besides, on TNFα [2], the “dissociation half-life (t1/2)” value was more than 8 h, the kon came to 1120 M⁻¹ s⁻¹ and the koff came to 2.24e-05 s⁻¹. Further, the concentration giving a half-maximal response (EC50) in assay [3] was 0.28 µM.
